Measurements published in patent US20230022157A1 (Achillion Pharmaceuticals, Inc., priority 2018, published 2023).
Read-outs that look alike come from different tables or passages of the source.

Biological target: T1, Human Factor D (Homo sapiens, UniProt P00746)
T1 construct: purified from human serum; purchased Complement Technology, Inc; host or cells: human serum (natural protein, not recombinant)
Test: Human Factor D Assay
Assay type: biochemical
Conditions: Human Factor D 80 nM, substrate Z-L-Lys-SBzl, read-out: IC50 (Stars)
Procedure, shortened: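 Serum-purified human factor D (80 nM final) preincubated 5 min at room temperature with test compound in 50 mM Tris, 1M NaCl, pH 7.5. Z-L-Lys-SBzl substrate and DTNB then added, each at 100 μM final. IC50 from nonlinear regression of reaction rate against compound concentration.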

T1 sequence (P00746 26-253): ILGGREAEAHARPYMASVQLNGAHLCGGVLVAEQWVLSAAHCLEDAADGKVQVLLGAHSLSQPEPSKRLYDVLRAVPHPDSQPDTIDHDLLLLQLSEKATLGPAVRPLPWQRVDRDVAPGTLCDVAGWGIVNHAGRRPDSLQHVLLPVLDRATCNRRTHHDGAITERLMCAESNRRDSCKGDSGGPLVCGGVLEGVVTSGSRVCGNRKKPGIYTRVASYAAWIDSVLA

IC50 (Table 2) | IC50 (assay of Example 3) | SMILES
< 1000 nM | – | COC(C)(C)CNC(=O)[C@@H]1C[C@@]2(C)C[C@H]2N1C(=O)Cn1nc(C(C)=O)c2cc(-c3cnc(C)nc3)cc(C)c21 [Compound 87, (1R,3S,5R)-2-{2-[3-acetyl-7-methyl-5-(2-methylpyrimidin-5-yl)indazol-1-yl]acetyl}-N-(2-methoxy-2-methylpropyl)-5-methyl-2-azabicyclo[3.1.0]hexane-3-carboxamide]
< 1000 nM | – | CC(=O)c1nn(CC(=O)N2[C@H](C(=O)Nc3nc(Br)ccc3C)C[C@@]3(C)C[C@@H]23)c2ccc(-c3cncc(C4(C(=O)O)CC4)c3)cc12 [Compound 98, 1-(5-(3-acetyl-1-(2-((1R,3S,5R)-3-((6-bromo-3-methylpyridin-2-yl)carbamoyl)-5-methyl-2-azabicyclo[3.1.0]hexan-2-yl)-2-oxoethyl)-1H-indazol-5-yl)pyridin-3-yl)cyclopropane-1-carboxylic acid]
< 1000 nM | – | CC(=O)c1nn(CC(=O)N2[C@H](C(=O)Nc3nc(Br)c(F)cc3C)C[C@@]3(C)C[C@@H]23)c2c(C)cc(-c3ccc(CO)nc3)cc12 [Compound 118, (1R,3S,5R)-2-(2-(3-acetyl-5-(6-(hydroxymethyl)pyridin-3-yl)-7-methyl-1H-indazol-1-yl)acetyl)-N-(6-bromo-5-fluoro-3-methylpyridin-2-yl)-5-methyl-2-azabicyclo[3.1.0]hexane-3-carboxamide]
< 1000 nM | – | CC(=O)c1nn(CC(=O)N2[C@H](C(=O)Nc3cncc(Br)n3)C[C@@]3(C)C[C@@H]23)c2c(C)cc(-c3ccc(CO)nc3)cc12 [Compound 119, (1R,3S,5R)-2-(2-(3-acetyl-5-(6-(hydroxymethyl)pyridin-3-yl)-7-methyl-1H-indazol-1-yl)acetyl)-N-(6-bromopyrazin-2-yl)-5-methyl-2-azabicyclo[3.1.0]hexane-3-carboxamide]
< 1000 nM | – | CC(=O)c1nn(CC(=O)N2[C@H](C(=O)Nc3cc(F)cc(Br)n3)C[C@@]3(C)C[C@@H]23)c2c(C)cc(-c3cnc(CO)nc3)cc12 [Compound 123, (1R,3S,5R)-2-(2-(3-acetyl-5-(2-(hydroxymethyl)pyrimidin-5-yl)-7-methyl-1H-indazol-1-yl)acetyl)-N-(6-bromo-4-fluoropyridin-2-yl)-5-methyl-2-azabicyclo[3.1.0]hexane-3-carboxamide]

More lines, now with the values behind:

SMILES | IC50 (Table 2) | IC50 (assay of Example 3)
CC(=O)c1nn(CC(=O)N2[C@H](C(=O)Nc3nc(Br)c(F)cc3C)C[C@@]3(C)C[C@@H]23)c2c(C)cc(-c3cnc(C(C)O)nc3)cc12 (stereo partly drawn) [Compound 96, (1R,3S,5R)-2-(2-(3-acetyl-5-(2-(1-hydroxyethyl)pyrimidin-5-yl)-7-methyl-11H-indazol-1-yl)acetyl)-N-(6-bromo-5-fluoro-3-methylpyridin-2-yl)-5-methyl-2-azabicyclo[3.1.0]hexane-3-carboxamide] | < 1000 nM | –
CC(=O)c1nn(CC(=O)N2[C@H](C(=O)NCCC3(C)OCCO3)C[C@@]3(C)C[C@@H]23)c2c(C)cc(-c3cnc(C)nc3)cc12 [Compound 145, (1R,3S,5R)-2-{2-[3-acetyl-7-methyl-5-(2-methylpyrimidin-5-yl)indazol-1-yl]acetyl}-5-methyl-N-[2-(2-methyl-1,3-dioxolan-2-yl)ethyl]-2-azabicyclo[3.1.0]hexane-3-carboxamide] | < 1000 nM | –
CC(=O)c1nn(CC(=O)N2[C@H](C(=O)Nc3nc(Br)c(F)cc3C)C[C@@]3(C)C[C@@H]23)c2c(C)cc(-c3cnc(CO)nc3)cc12 [Compound 49, (1R,3S,5R)-2-(2-(3-acetyl-5-(2-(hydroxymethyl)pyrimidin-5-yl)-7-methyl-1H-indazol-1-yl)acetyl)-N-(6-bromo-5-fluoro-3-methylpyridin-2-yl)-5-methyl-2-azabicyclo[3.1.0]hexane-3-carboxamide] | < 1000 nM | –
COC(=O)c1ncc(-c2cc(C)c3c(c2)c(C(C)=O)nn3CC(=O)N2[C@H](C(=O)Nc3nc(Br)ccc3C)C[C@@]3(C)C[C@@H]23)cn1 [Compound 38, methyl 5-(3-acetyl-1-(2-((1R,3S,5R)-3-((6-bromo-3-methylpyridin-2-yl)carbamoyl)-5-methyl-2-azabicyclo[3.1.0]hexan-2-yl)-2-oxoethyl)-7-methyl-1H-indazol-5-yl)pyrimidine-2-carboxylate] | – | < 1000 nM
